Measured values as given in patent publication US10781227B2, “Application of metal complexes in anti-tumor and anti-bacterial therapy” (biolitec Unternehmensbeteiligungs II AG, priority 2018, dated 2020).

Assays:
[1] = system: HT29, L929, A431, A253, CAL-27 and J774A.1 cell lines; experiment: Cell test of photodynamic activity and light independent toxicity, XTT cell viability assay; format: cell-based, human, mouse; settings: for toxicity against tumor cells in the absence of light / activity against the cell lines without light: 2 or 10 μM; for toxicity against tumor cells in the absence of light: no irradiation; for activity against the cell lines under irradiation (phototoxicity): 2 or 10 μM photosensitizer, 24 h incubation, white light 50 J/cm^2, XTT after 24 h; for activity against the cell lines without light: no irradiation (dark toxicity)
Experimental: The photosensitizing activity was determined in the following cell lines: • HT29 (human colon adenocarcinoma cell line) • L929 (mouse fibroblast cell line) • A431 (human epidermoid carcinoma cell line) • A253 (submaxillary salivary gland, epidermoid cell line) • CAL-27 (human tongue squamous cell carcinoma cell line) • J774A.1 (Mouse BALB/c monocyte macrophage). The cell lines were grown in DMEM (PAA Laboratories GmbH) supplemented with 10% heat-inactivated fetal calf serum (FCS, PAA Laboratories GmbH), 1% penicillin (10000 IU) and streptomycin (10000 μg/ml, PAA Laboratories GmbH). Cells were kept as a monolayer culture in a humidified incubator (5% CO2 in air at 37° C.). A photosensitizer stock solution (2 mM) was performed in DMSO and was kept in the dark at 4° C. […] Cells were incubated with fresh medium (DMEM without phenol red) containing 10% FCS with 2 or 10 μM of the photosensitizer for 24 h before light exposure. Before photosensitization, cells were washed, cell culture medium was exchanged with DMEM without phenol red and 10% FCS, then irradiated at room temperature with white light source at a fixed fluence rate of about 100 mW/cm^2 (50 J/cm^2). Following irradiation, cells were incubated in a humidified incubator (5% CO2 in air at 37° C.) for 24 h until cell viability assay. […] Solution was stored in the dark at −20° C. until use. A sterile solution containing PMS ([…], Applichem GmbH) was needed as an activation reagent for the XTT. 0.383 mg PMS was dissolved in 1 ml PBS-Buffer. The solution should be stored frozen and should not be exposed to light. The XTT reagent solution was thawed in a 37° C. water bath and the activation solution (PMS) was added immediately prior to use. To prepare a reaction solution sufficient for one micro plate (96 wells), 0.1 ml activation solution (PMS) was given to 5 ml XTT reagent. The medium in the micro plate was exchanged with RPMI without phenol red and 10% FCS (100 μl) prior adding 50 μl XTT reaction solution per well. The micro plate was incubated for 2-3 hours at 37° C. and 5% CO2 until an orange dye was formed. The micro plate has been shaken gently to evenly distribute the dye in the wells. The absorbance of the samples was measured with a spectrophotometer (Infinite 200, Tecan Group Ltd.) at a wavelength of 490 nm.

[2] = system: Staphylococcus aureus DSM 11729; experiment: Antibacterial testing, colony-forming units after incubation with or without white light; format: cell-based; settings: 100, 10 or 1 μM; for activity/toxicity against S. aureus without light: no illumination, CFU/ml; for activity against S. aureus under irradiation: 30 min incubation, white light about 100 J/cm^2, CFU/ml
Experimental: (§1) The organisms studied were Staphylococcus aureus DSM 11729, Gram-positive; Acinetobacter baumannii DSM30007, and Klebsiella pneumoniae DSM30104, both Gram-negative. Cultures cells are suspended in sterile phosphate-buffered saline (PBS) or sterile PBS supplemented with 10% sterile horse blood serum. The bacterial suspensions are placed into sterile black well plates with clear bottoms. Concentrations of photosensitizer used in the study were as follows: 100 μM, 10 μM and 1 μM. After an incubation time period of 30 minutes, the samples are exposed to white light, with a power density and irradiation time resulting in an energy fluency of about 100 J/cm^2. Control plates contained no photosensitizer and are not exposed to laser light. The control samples for dark toxicity are only exposed to photosensitizer without any illumination. After irradiation, the samples are removed and suspended again in the culture media. The numbers of colony-forming units (CFU/ml) are enumerated after an adequate incubation time period.

[3] = system: Staphylococcus aureus DSM 11729; Acinetobacter baumannii DSM30007; Klebsiella pneumoniae DSM30104; experiment: Antibacterial testing, bacteria not specified; format: cell-based; settings: PBS supplemented with 10% sterile horse blood serum
Experimental: as §1

[4] = system: Klebsiella pneumoniae DSM30104; experiment: Antibacterial testing, colony-forming units after incubation with or without white light; format: cell-based; settings: 100, 10 or 1 μM
Experimental: as §1

Substance | toxicity against tumor cells in the absence of light [1] | activity/toxicity against S. aureus without light [2] | antibacterial activity in the presence of complex media (serum addition) [3] | activity against the cell lines under irradiation (phototoxicity) [1] | activity against the cell lines without light [1] | activity against K. pneumoniae under irradiation ([4]; 30 min incubation, white light about 100 J/cm^2, CFU/ml) | activity against K. pneumoniae without light ([4]; no illumination, CFU/ml) | activity against S. aureus under irradiation [2]
[bis(2,2′-bipyridyl(4-(prop-2-enyloxy)-2,3,5,6-tetrafluorophenyl)-dipyrrinato)]ruthenium(II) chloride [Example 4.8] | high toxicity | high toxicity | – | – | – | – | – | –
Tris[5-(4-β-D-thioglucosyl)-2,3,5,6-tetrafluorophenyl)dipyrrinato gallium(III) [Example 4.3] | – | nearly no activity | antibacterial activity is also observed | high activity | no activity | high activity | nearly no activity | high activity
Tris[5-(4-β-D-thiogalactosyl)-2,3,5,6-tetrafluorophenyl)dipyrrinato gallium(III) [Example 4.5] | – | nearly no activity | – | high activity | no activity | – | – | high activity
[bis(2,2′-bipyridyl(4-(hexyloxy)-2,3,5,6-tetrafluorophenyl)-dipyrrinato)]ruthenium(II) chloride [Example 4.6] | high toxicity | – | – | – | – | – | – | –
[bis(2,2′-bipyridyl(4-(prop-2-enylamino)-2,3,5,6-tetrafluorophenyl)-dipyrrinato)]ruthenium(II) chloride [Example 4.7] | high toxicity | high toxicity | antibacterial activity is also observed | – | – | – | – | –
